Measurements reported in patent publication US10231958B2, “Methods and compositions for enhancing chemotherapy” (THE BOARD OF REGENTS OF THE UNIVERSITY OF TEXAS SYSTEM, priority 2015, dated 2019).
Starred links: 1 amine or outer side, 2 acyl side, 3 side chain; linkers in the order of their positions; H or OH if unused. Positions of bridges follow the written chain, without caps; N, C: chain ends. Non-standard residues stand in square brackets, D forms with d. Residues, ends and D or L forms follow the SMILES beside them. Chains are numbered I, II in the order given. Actinocin(9to1) = Cc1c2oc3c(C)ccc(C(=O)[*:1])c3nc-2c(C(=O)[*:2])c(N)c1=O; NMeV = CN[C@H](C(=O)O)C(C)C; Sar = CNCC(=O)O

How the values were obtained:
[1] = tested on: Intracellular ROS production; test: Real-time ROS production (DCF assay); assay type: cell-based; settings: for ROS production, agent alone: BSO 2.5 mM, CDDP 75 μM, TMZ 1.5 mM, 4HC 75 μM, 12 h
Description: Intracellular ROS production was detected using DCFH-DA probe (Sigma) (Zanotto-Filho et al., 2010, Cancer Lett 288, 192-203). This reagent enters the cells and reacts predominantly with highly oxidizing species of ROS, such as hydroxyl radicals, hydroperoxides, and peroxynitrite, thus producing the fluorophore DCF. Briefly, cells were seeded in black-edge clear bottom 96-well plates. After reaching 70% confluence, medium was changed and cells were incubated with 20 μM DCFH-DA dissolved in medium containing 0.5% FBS. After 1 h pre-incubation to allow DCFH-DA uptake, treatments were added to its respective final concentrations and DCF fluorescence was monitored at 0.5, 1, 3, 8, 12, 16 and 24 h in a fluorescence reader (Ex/Em=485/532 nm). Hydrogen peroxide was used as a positive control and N-acetylcysteine (NAC), GSH-ethyl-ester (GSH-E) and Trolox were used as antioxidant standards. As a control, at the end of 24 h, cell viability was assessed and compared to wells in the absence of DCFH-DA.

[2] = tested on: NRF2, GCLC, ER stress markers; test: Western blot of NRF2, GCLC and ER stress markers; assay type: cell-based; settings: for NRF2 and GCLC protein levels: MEFs, MDA-MB231, MCF-7, 8-12 h; for immunocontent of ER stress markers: cancer cells, 24 h; for effect on MMS-induced NRF2 activation: CHX 1 μg/mL, Actinomycin D 5 μg/mL, NAC 7.5 mM
Description: Western blot. Protein lysates were prepared using RIPA buffer containing 5% sodium deoxycholate, 0.1% SDS, 0.1% Igepal in PBS with a cocktail of protease and phosphatase inhibitors (1 mM PMSF, 1 mM sodium orthovanadate, 1 mM NaF, and 30 μL/mL aprotinin (Sigma-Aldrich, USA)) and clarified by centrifugation. Protein concentration was determined using Bradford Protein Assay Reagent (Biorad, Hercules, Calif.). Equal amounts of protein were resolved using 8-12% SDS polyacrylamide gel, transferred onto nitrocellulose membranes (Hybond-ECL, GE Healthcare Lifesciences, Piscataway, N.J.) and detected using Lumiglo system (Cell Signaling Technology, Calif.) and x-ray films. Primary antibodies included COX-2 (#4842), NRF2 (D1C9), p-JNK1/2 (Thr183/Tyr185, #4671), p-p38 (Thr180/Tyr182, #9216), p-ERK1/2 (Thr202/Tyr204, #9101), BiP/GRP78 (C50B12), IRE1a (14C10), CHOP (L63F7) and PERK (D11A8) from Cell Signaling Technology; p-IRE1a (Ser724; NB100-2323) from Novus Biologicals; GCLC (Ab41463), beta-actin (ab8227) and ATF6 (Ab37149) from Abcam; p-PERK (Thr 981, sc-32577) and ATF3 (C19) were purchased from Santa Cruz. All primary antibodies were used at 1:1000 dilutions and secondary antibodies were 1:3000 in TBS-T with 5% BSA.

IL8, MMP1, MMP3 and PGE2 = test: ELISA of inflammatory mediators in culture medium; assay type: cell-based, human; settings: for production of IL-8, MMP-1 and MMP-3: MDA-MB231 culture medium; for prostaglandin E2 (PGE2) in culture medium and COX-2 protein in lysates: human cancer cells, 12 h
Description: (§1) Quantification of MMP1 and MMP3 content in culture medium was assessed using RayBio-MMP3 and RayBio-MMP1 Elisa Kit (RayBiotech, Inc); IL8 was analyzed by Human IL-8 Elisa kit (Pierce Biotechnology). The levels of prostaglandin E2 (PGE2) were determined using the Prostaglandin E2 EIA Kit Monoclonal (Cayman Chemical Company). Culture media were diluted to fit within the standard curves. For conditioned media (CM) preparation for invasion and in vitro angiogenesis experiments, 12-well plated cells were treated with MMS (or MMS plus inhibitors) for 8 h in the presence of 10% FBS, twice washed with HBSS, and incubated with 700 μL drug/serum-free fresh medium for additional 12 h. Thereafter, the conditioned fresh medium was collected and directly used for migration and invasion experiments in order to reduce freezing associated loss of activity.

[3] = tested on: MDA-MB231 xenograft implants; test: MDA-MB231 xenograft study; assay type: in vivo, mouse
Excerpt: The study was approved by the University of Texas Health Science Center at San Antonio Institutional Animal Care and Use Committee (IACUC) policy as outlined in protocol number 11024. The facility is operated in compliance with the Public Law 89-544 (Animal Welfare Act) and its amendments, Public Health Services Policy on Humane Care and Use of Laboratory Animals (PHS Policy) using the Guide for the Care and Use of Laboratory Animals (Guide) as the basis of operation. Selection of cyclophosphamide and sorafenib doses was based on previously published reports (Sun et al., 2010, J Int Med Res 38, 967-76; Wilhelm et al., 2004 Cancer Res 64, 7099-109). MDA-MB-231 cells were harvested by trypsinization, washed and re-suspended in serum-free medium. Thereafter, cells were mixed with matrigel (1:1), and approximately 5×10^6 cells were subcutaneously injected in the right flank of each mouse. When the average tumor volume reached about 100 mm^3, mice were randomized into groups of 8 animals each, and the following treatment protocol was implemented: Group 1 (control): 100 μL of saline (i.p.); Group 2: sorafenib (1 mg/kg; i.p.) for 9 days; Group 3: cyclophosphamide 0.1 g/kg on days 2, 4, 6 and 8; Group 4: Sorafenib+cyclophosphamide (combination of same above described regimens). All animals were sacrificed 5 days after the end of treatments (15th day of the treatment protocol). Body weight of mice was recorded weekly, and tumor size was measured thrice a week in two dimensions using a digital caliper. The tumor volume was calculated by the formula 0.5236 L1(L2)^2, where L1 is the long axis, and L2 is the short axis of the tumor. At the termination of the study, mice were euthanized; tumors were excised and a part was fixed in 10% phosphate-buffered formalin for H&E, Masson's staining and immunohistochemistry (IHC) analyses.

[4] = tested on: AP1-responsive firefly luciferase construct in MDA-MB231 cells; test: AP-1 gene reporter assay; assay type: cell-based, human; settings: MDA-MB231, pre-incubation with inhibitor
Description: (§2) Prior to transfection, cells were plated in 96-well plates to 80-90% confluence (100 μL antibiotic free-medium) after 24 h. When used, siRNA were incubated by reverse transfection during cells seeding. […] A mixture of non-inducible firefly luciferase construct and constitutively expressing Renilla luciferase construct (40:1) were used as negative controls. Approximately 24 h post-transfection, the medium was changed and the cells were treated for 12 h with alkylating agents (with/out 6 h pre-treatments). At the end of this period, medium was changed to drug-free fresh medium (to minimize the effect of alkylating toxicity on promoters activity) and cells were kept for an additional 12 h.

[5] = tested on: NFκB-responsive firefly luciferase construct in MDA-MB231 cells; test: NFκB gene reporter assay; assay type: cell-based, human; settings: MDA-MB231, pre-incubation with inhibitor
Description: as §2

human endothelial cells = test: In vitro angiogenesis (Angiophase kit, CD31); assay type: cell-based; settings: direct incubation
Description: as §1
The Angiophase kit (MBL Inc.) was used to assess the angiogenic potential of conditioned media (CM) from breast cancer cells or the direct effect of pharmaceutical inhibitors (free-drug system) on vessel-like structures formation in vitro. With this kit, human endothelial cells are co-cultured in a specially designed medium to form threadlike tubule structures. These gradually join up to form a network of anastomosing tubules, which resemble the capillary bed found in the CAM assay. Kit-provided cryopreserved co-culture of human endothelial cells were plated and kept for 96 h (proliferative phase) without treatments. Afterwards, the cells were maintained in the presence of conditioned medium from alkylating agent treated cells or control medium for a total of 14 days (angiogenic/vasculogenic phase). Medium was changed each 2 days. At the end of treatments, the cells were fixed and immune-stained for CD31 (PECAM-1), following by incubation with secondary antibody conjugate. ELISA was developed using the soluble substrate p-nitrophenyl-phosphate (p-NPP) whose product was colorimetrically read at 405 nm. After ELISA assays, the wells were washed with dH2O and tubule staining was performed by incubating CD31-stained tubules with the substrate BCIP/NBT, which form insoluble precipitates. Tubules were counted and photographed for qualitative monitoring.

[6] = tested on: Kc167 cells, MEFs, and MDA-MB231 breast cancer cells; test: Cell viability (CellTiter-Glo); assay type: cell-based, D. melanogaster, mouse, human; settings: pre-incubation, then MMS; all cell types tested; 48 h
Description: The D. melanogaster embryonic cell line Kc167 was grown in Schneider medium (Invitrogen, Carlsbad, Calif.) supplemented with 10% heat-inactivated (56° C./30 min) fetal bovine serum (FBS), penicillin and streptomycin at 22° C. in a humidified incubator. Primary MEFs were obtained by harvesting 14.5-day C57BL/6J embryos as previously described (Ravi et al., 2009, PLoS Genet 5, e1000527). Briefly, fetal liver and head were removed and the remainder of the embryo was mechanically disaggregated in plating medium. A suspension of single-cells was plated in DMEM (plus 10% FBS, 100 U/mL penicillin and 100 μg/mL streptomycin). MEFs were grown for two passages before freezing aliquots. Aliquots were taken and expanded as needed for each experiment. MDA-MB231, SkBr3 and MCF-7 breast cancer cells lines were obtained from ATCC and grown in DMEM supplemented with 10% inactivated FBS plus antibiotics in a 37° C. humidified incubator at […] atmosphere. Cells were kept and treated in the exponential phase of growing (60-70% confluence). […] DMSO concentrations were kept to a maximum of 0.1% for all experiments. Cell viability was assessed using CellTiter-Glo Luminescent Viability assay (Promega) in 384 or 96-well plates white-border clear-bottom plated cells. For caspase-3/7 activity, Caspase-Glo 3/7 Assay kits were used (Promega). For caspase assays, the cells were seeded in 96-well plates and assayed directly after treatments. Caspase-3/7 inhibitor (Z-DEVD-fmk) was used to ensure assay specificity. LDH release into culture medium was quantified by Cytotox-96 Non-Radioactive assay kit in agreement with instructions (Promega).

In the case of `[NH2][Pt]([NH2])([Cl])[Cl]` [CDDP, cisplatin], the “ROS production, agent alone” value [1] is reported as “increased ROS”, the “NRF2 and GCLC protein levels” value [2] is reported as “induced NRF2 and GCLC protein” and the “immunocontent of ER stress markers” value [2] is reported as “increased the immunocontent of ER stress markers”. For the same compound, the “production of IL-8, MMP-1 and MMP-3” value (IL8, MMP1, MMP3 and PGE2) was “increased the production of these molecules” and the “prostaglandin E2 (PGE2) in culture medium and COX-2 protein in lysates” value (IL8, MMP1, MMP3 and PGE2) was “increased levels of prostaglandin E2 (PGE2)”.
In the case of `Cc1c2oc3c(C)ccc(C(=O)N[C@@H]4C(=O)N[C@H](C(C)C)C(=O)N5CCC[C@H]5C(=O)N(C)CC(=O)N(C)[C@@H](C(C)C)C(=O)O[C@@H]4C)c3nc-2c(C(=O)N[C@@H]2C(=O)N[C@H](C(C)C)C(=O)N3CCC[C@H]3C(=O)N(C)CC(=O)N(C)[C@@H](C(C)C)C(=O)O[C@@H]2C)c(N)c1=O` [actinomycin D] (I: T[dV]P[Sar][NMeV] / II: T[dV]P[Sar][NMeV]; ester I:1-I:C, II:1-II:C; linker I:N-II:N via Actinocin(9to1)), the “effect on MMS-induced NRF2 activation” value [2] is reported as “blocked NRF2 activation”.
In the case of `C[C@@H]1C[C@@H]([C@H](O)CC2CC(=O)NC(=O)C2)C(=O)[C@@H](C)C1` [cycloheximide], the “effect on MMS-induced NRF2 activation” value [2] is reported as “blocked NRF2 activation”.
With `O=P1(N(CCCl)CCCl)NCCCO1` (centres unmarked) [cyclophosphamide] the “collagen deposition (wound healing phenotype)” value ([3]; cyclophosphamide alone) was “spreading areas of collagen deposition”, the “tumor microvessels (histology, CD31)” value ([3]; cyclophosphamide alone vs untreated) was “increased number of niches of microvessels” and the “tumor growth, single agent” value ([3]; sorafenib 1 mg/kg i.p. 9 days, cyclophosphamide 0.1 g/kg days 2, 4, 6, 8) was “reduced tumor size”.
In the case of `O=P1(N(CCCl)CCCl)NC(OO)CCO1` (centres unmarked) [4-HC, 4-hydroperoxycyclophosphamide], the “ROS production, agent alone” value [1] is reported as “increased ROS”, the “NRF2 and GCLC protein levels” value [2] is reported as “induced NRF2 and GCLC protein” and the “immunocontent of ER stress markers” value [2] is reported as “increased the immunocontent of ER stress markers”. For the same compound, the “production of IL-8, MMP-1 and MMP-3” value (IL8, MMP1, MMP3 and PGE2) was “increased the production of these molecules” and the “prostaglandin E2 (PGE2) in culture medium and COX-2 protein in lysates” value (IL8, MMP1, MMP3 and PGE2) was “increased levels of prostaglandin E2 (PGE2)”.
In the case of `C[S+]([O-])c1ccc(-c2nc(-c3ccc(F)cc3)c(-c3ccncc3)[nH]2)cc1` (centres unmarked) [SB203508], the “effect on MMS-induced activation of AP-1 reporter” value [4] is reported as “only blocked the NFκB reporter” and the “effect on MMS-induced activation of NFκB reporter” value [5] is reported as “only blocked the NFκB reporter”.
`CCCCC[C@H](O)/C=C/[C@H]1[C@H](O)CC(=O)[C@@H]1C/C=C\CCCC(=O)O` [PGE2, prostaglandin E2] was tested, and the “vessel-like structure formation, purified factor” value (human endothelial cells) was “angiogenic”.
`Cc1c(C)c2c(c(C)c1O)CCC(C)(C(=O)O)O2` (centres unmarked) [Trolox] was tested, and the “effect on ROS levels” value ([1]; Trolox 200 μM, NAC 7.5 mM, GSH-E 10 mM) was “reduced ROS below levels of the control” and the “effect on MMS toxicity” value [6] was “had no effect”.
VEGF was tested, and the “vessel-like structure formation, purified factor” value (human endothelial cells) was “angiogenic”.
With `O=C1c2ccccc2-c2n[nH]c3cccc1c23` [SP600129] the “effect on MMS-induced activation of AP-1 reporter” value [4] was “blocked”.
With `Cc1ccc(S(=O)(=O)/C=C/C#N)cc1` [BAY117082] the “effect on MMS-induced activation of NFκB reporter” value [5] was “blocked”.
